This test concerns the target T1, Cbl-b (Homo sapiens, UniProt Q13191).
T1 construct: Cbl-b-HiBit KI Jurkat Cells were purchased from Promega; host or cells: Cbl-b-HiBiT knock-in Jurkat cells
The experiment in a line: Cbl-b Degradation Method B (Nano-Glo HiBiT lytic detection). The test is classed as cell-based. The conditions noted are these: Cbl-b-HiBit KI Jurkat Cells, incubated at least 6-24 hours; for DC50: half maximal degradation, read-out: Cbl-b Degredation Method B IC50; for Dmax: maximum degradation observed, read-out: Cbl-b Degredation Method B Dmax (%). In outline:
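An 11-point, 3-fold compound dilution was applied for 6-24 hours to Jurkat cells carrying HiBiT-tagged endogenous Cbl-b. Lytic HiBiT luminescence quantified residual protein. Outputs are DC50 and Dmax relative to DMSO control.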
Background: HiBiT is a short tag that completes a luciferase, so light tracks the accessible tagged protein.

T1 sequence (Q13191 whole entry): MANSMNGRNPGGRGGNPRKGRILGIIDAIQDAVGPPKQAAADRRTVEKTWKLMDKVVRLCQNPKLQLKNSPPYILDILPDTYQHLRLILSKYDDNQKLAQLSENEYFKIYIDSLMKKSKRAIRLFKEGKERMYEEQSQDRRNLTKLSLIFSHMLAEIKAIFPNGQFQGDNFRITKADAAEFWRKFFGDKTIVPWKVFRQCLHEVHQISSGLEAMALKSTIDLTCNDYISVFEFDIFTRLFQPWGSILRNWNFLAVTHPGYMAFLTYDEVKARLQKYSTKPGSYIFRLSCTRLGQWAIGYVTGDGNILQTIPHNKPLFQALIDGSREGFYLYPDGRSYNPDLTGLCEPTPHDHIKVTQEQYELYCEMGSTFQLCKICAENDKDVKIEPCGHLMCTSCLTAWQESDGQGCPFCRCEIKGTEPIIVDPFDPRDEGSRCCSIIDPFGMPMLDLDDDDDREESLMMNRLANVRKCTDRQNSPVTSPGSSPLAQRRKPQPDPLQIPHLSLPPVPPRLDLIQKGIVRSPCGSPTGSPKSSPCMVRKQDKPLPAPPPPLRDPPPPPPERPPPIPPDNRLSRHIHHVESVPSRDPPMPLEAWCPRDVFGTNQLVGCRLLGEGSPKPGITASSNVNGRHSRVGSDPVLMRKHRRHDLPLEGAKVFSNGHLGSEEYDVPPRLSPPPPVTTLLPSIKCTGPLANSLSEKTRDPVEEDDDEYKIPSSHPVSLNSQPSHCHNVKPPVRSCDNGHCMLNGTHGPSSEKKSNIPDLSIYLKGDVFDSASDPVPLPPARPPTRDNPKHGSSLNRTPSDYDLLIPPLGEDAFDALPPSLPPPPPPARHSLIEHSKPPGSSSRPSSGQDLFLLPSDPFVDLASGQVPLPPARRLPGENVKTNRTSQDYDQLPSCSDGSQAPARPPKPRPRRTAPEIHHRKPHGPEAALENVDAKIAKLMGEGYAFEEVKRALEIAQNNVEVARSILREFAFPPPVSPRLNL

Consider `CC(C)n1c(=O)n(C2CCC(=O)NC2=O)c2ccc(N3CCC(O[C@H]4CC[C@@H](CN5CCN(C[C@H]6CCCN(Cc7cc(C(F)(F)F)c8cn(-c9cccc(C%10(Cc%11nncn%11C)COC%10)c9)nc8c7)C6)C(C)(C)C5)CC4)CC3)cc21` (stereo partly drawn) [Example 266, 3-[2-oxo-3-(propan-2-yl)-5-(4-{[(1r,4r)-4-[(3,3-dimethyl-4-{[(3S)-1-{[2-(3-{3-[(4-methyl-4H-1,2,4-triazol-3-yl)methyl]oxetan-3-yl}phenyl)-4-(trifluoromethyl)-2H-indazol-6-yl]methyl}piperidin-3-yl]methyl}piperazin-1-yl)methyl]cyclohexyl]oxy}piperidin-1-yl)-2,3-dihydro-1H-1,3-benzodiazol-1-yl]piperidine-2,6-dione], for which the DC50 is below 5 nM and the Dmax was above 70%.

As for `Cn1cnnc1CC1(c2cccc(-n3cc4c(C(F)(F)F)cc(CN5CCC[C@H](CN6CCN(C[C@H]7CC[C@@H](OC8CCN(c9ccc%10c(c9F)CN(C9CCC(=O)NC9=O)C%10=O)CC8)CC7)CC6(C)C)C5)cc4n3)c2)COC1` (stereo partly drawn) [Example 267, 3-[4-fluoro-1-oxo-5-(4-{[(1r,4r)-4-[(3,3-dimethyl-4-{[(3S)-1-{[2-(3-{3-[(4-methyl-4H-1,2,4-triazol-3-yl)methyl]oxetan-3-yl}phenyl)-4-(trifluoromethyl)-2H-indazol-6-yl]methyl}piperidin-3-yl]methyl}piperazin-1-yl)methyl]cyclohexyl]oxy}piperidin-1-yl)-2,3-dihydro-1H-isoindol-2-yl]piperidine-2,6-dione], the DC50 was below 5 nM and the Dmax is above 70%.

As to `CC(C)n1c(=O)n(C2CCC(=O)NC2=O)c2ccc(N3CCC(O[C@H]4CC[C@@H](CN5CCN(C[C@H]6CCCN(Cc7cc(C(F)(F)F)c8cn(-c9cccc(C%10(Cc%11nncn%11C)COC%10)c9)nc8c7)C6)CC5)CC4)CC3)cc21` (stereo partly drawn) [Example 268, 3-[2-oxo-3-(propan-2-yl)-5-(4-{[(1r,4r)-4-[(4-{[(3S)-1-{[2-(3-{3-[(4-methyl-4H-1,2,4-triazol-3-yl)methyl]oxetan-3-yl}phenyl)-4-(trifluoromethyl)-2H-indazol-6-yl]methyl}piperidin-3-yl]methyl}piperazin-1-yl)methyl]cyclohexyl]oxy}piperidin-1-yl)-2,3-dihydro-1H-1,3-benzodiazol-1-yl]piperidine-2,6-dione], the DC50 is below 5 nM and the Dmax is above 70%.

Regarding `Cc1cc(N2CCC(O[C@H]3CC[C@@H](CN4CCN(C[C@H]5CCCN(Cc6cc7c(c(C(F)(F)F)c6)CN(c6cccc(C8(Cc9nncn9C)COC8)c6)C7=O)C5)C(C)(C)C4)CC3)CC2)c(F)c2c1C(=O)N(C1CCC(=O)NC1=O)C2` (stereo partly drawn) [Example 269, 3-[4-fluoro-7-methyl-1-oxo-5-(4-{[(1r,4r)-4-[(3,3-dimethyl-4-{[(3S)-1-{[2-(3-{3-[(4-methyl-4H-1,2,4-triazol-3-yl)methyl]oxetan-3-yl}phenyl)-3-oxo-7-(trifluoromethyl)-2,3-dihydro-1H-isoindol-5-yl]methyl}piperidin-3-yl]methyl}piperazin-1-yl)methyl]cyclohexyl]oxy}piperidin-1-yl)-2,3-dihydro-1H-isoindol-2-yl]piperidine-2,6-dione], the DC50 is below 5 nM and the Dmax was above 70%.

`Cn1cnnc1CC1(c2cccc(N3Cc4c(cc(CN5CCC[C@H](CN6CCN(C[C@H]7CC[C@@H](OC8CCN(c9ccc%10c(c9F)CN(C9CCC(=O)NC9=O)C%10=O)CC8)CC7)CC6(C)C)C5)cc4C(F)(F)F)C3=O)c2)CCC1` (stereo partly drawn) [Example 270, 3-[4-fluoro-1-oxo-5-(4-{[(1r,4r)-4-[(3,3-dimethyl-4-{[(3S)-1-{[2-(3-{1-[(4-methyl-4H-1,2,4-triazol-3-yl)methyl]cyclobutyl}phenyl)-3-oxo-7-(trifluoromethyl)-2,3-dihydro-1H-isoindol-5-yl]methyl}piperidin-3-yl]methyl}piperazin-1-yl)methyl]cyclohexyl]oxy}piperidin-1-yl)-2,3-dihydro-1H-isoindol-2-yl]piperidine-2,6-dione]: the DC50 is below 5 nM and the Dmax was above 70%.

Take `Cc1cc(N2C[C@@H]3C[C@H]2CN3CC2CCC3(CC2)CN(c2cc4c(c(C(F)(F)F)c2)CN(c2cccc([C@]5(Cc6nncn6C)C[C@@H](C#N)C5)c2)C4=O)C3)c(F)c2c1C(=O)N(C1CCC(=O)NC1=O)C2` (stereo partly drawn) [Example 271, (1r,3r)-3-{3-[6-(7-{[(1S,4S)-5-[2-(2,6-dioxopiperidin-3-yl)-4-fluoro-7-methyl-1-oxo-2,3-dihydro-1H-isoindol-5-yl]-2,5-diazabicyclo[2.2.1]heptan-2-yl]methyl}-2-azaspiro[3.5]nonan-2-yl)-1-oxo-4-(trifluoromethyl)-2,3-dihydro-1H-isoindol-2-yl]phenyl}-3-[(4-methyl-4H-1,2,4-triazol-3-yl)methyl]cyclobutane-1-carbonitrile]: the DC50 was 5 to 50 nM and the Dmax lay within 35 to 70%.

As for `Cc1cc(C2CCN(CC3CCC4(CC3)CN(c3cc5c(c(C(F)(F)F)c3)CN(c3cccc([C@]6(Cc7nncn7C)C[C@@H](C#N)C6)c3)C5=O)C4)CC2)c(F)c2c1C(=O)N(C1CCC(=O)NC1=O)C2` (stereo partly drawn) [Example 272, (1r,3r)-3-(3-{6-[7-({4-[2-(2,6-dioxopiperidin-3-yl)-4-fluoro-7-methyl-1-oxo-2,3-dihydro-1H-isoindol-5-yl]piperidin-1-yl}methyl)-2-azaspiro[3.5]nonan-2-yl]-1-oxo-4-(trifluoromethyl)-2,3-dihydro-1H-isoindol-2-yl}phenyl)-3-[(4-methyl-4H-1,2,4-triazol-3-yl)methyl]cyclobutane-1-carbonitrile], the DC50 was in the range of 5 to 50 nM and the Dmax lay within 35 to 70%.

As to `CC(C)n1c(=O)n(C2CCC(=O)NC2=O)c2ccc(N3CCC(CN4CCN(C[C@H]5CCCN(Cc6cc7c(c(C(F)(F)F)c6)CN(c6cccc(C8(Cc9nncn9C)CC(C#N)C8)c6)C7=O)C5)C(C)(C)C4)CC3)cc21` (stereo partly drawn) [Example 273, (1r*,3r*)-3-[3-(6-{[(3S)-3-{[4-({1-[1-(2,6-dioxopiperidin-3-yl)-2-oxo-3-(propan-2-yl)-2,3-dihydro-1H-1,3-benzodiazol-5-yl]piperidin-4-yl}methyl)-2,2-dimethylpiperazin-1-yl]methyl}piperidin-1-yl]methyl}-1-oxo-4-(trifluoromethyl)-2,3-dihydro-1H-isoindol-2-yl)phenyl]-3-[(4-methyl-4H-1,2,4-triazol-3-yl)methyl]cyclobutane-1-carbonitrile], the DC50 was below 5 nM.

For `Cn1cnnc1C[C@]1(c2cccc(N3Cc4c(cc(CN5CCN(C[C@H]6CC[C@H](OC7CCN(c8cccc9c8n(C)c(=O)n9C8CCC(=O)NC8=O)CC7)CC6)CC5(C)C)cc4C(F)(F)F)C3=O)c2)C[C@H](C#N)C1` (stereo partly drawn) [Example 274, (1r,3r)-3-(3-{6-[(2,2-dimethyl-4-{[(1r,4r)-4-({1-[1-(2,6-dioxopiperidin-3-yl)-3-methyl-2-oxo-2,3-dihydro-1H-1,3-benzodiazol-4-yl]piperidin-4-yl}oxy)cyclohexyl]methyl}piperazin-1-yl)methyl]-1-oxo-4-(trifluoromethyl)-2,3-dihydro-1H-isoindol-2-yl}phenyl)-3-[(4-methyl-4H-1,2,4-triazol-3-yl)methyl]cyclobutane-1-carbonitrile], the DC50 was below 5 nM and the greatest degradation seen (Dmax) is above 70%.

With `CC(C)n1c(=O)n(C2CCC(=O)NC2=O)c2cccc(N3CCC(O[C@H]4CC[C@H](CN5CCN(Cc6cc7c(c(C(F)(F)F)c6)CN(c6cccc([C@]8(Cc9nncn9C)C[C@@H](C#N)C8)c6)C7=O)C(C)(C)C5)CC4)CC3)c21` (stereo partly drawn) [Example 275, (1r,3r)-3-(3-{6-[(2,2-dimethyl-4-{[(1r,4r)-4-({1-[1-(2,6-dioxopiperidin-3-yl)-2-oxo-3-(propan-2-yl)-2,3-dihydro-1H-1,3-benzodiazol-4-yl]piperidin-4-yl}oxy)cyclohexyl]methyl}piperazin-1-yl)methyl]-1-oxo-4-(trifluoromethyl)-2,3-dihydro-1H-isoindol-2-yl}phenyl)-3-[(4-methyl-4H-1,2,4-triazol-3-yl)methyl]cyclobutane-1-carbonitrile], the DC50 lay within 5 to 50 nM and the Dmax fell in the range of 35 to 70%.

For `CC1c2c(cc(CN3CCN(C[C@H]4CC[C@H](OC5CCN(c6ccc7c(c6F)CN(C6CCC(=O)NC6=O)C7=O)CC5)CC4)CC3(C)C)cc2C(F)(F)F)C(=O)N1c1cccc(C2(Cc3nncn3C)COC2)c1` (stereo partly drawn) [Example 279, 3-[4-fluoro-1-oxo-5-(4-{[(1r, 4r)-4-[(3,3-dimethyl-4-{[1-methyl-2-(3-{3-[(4-methyl-4H-1,2,4-triazol-3-yl)methyl]oxetan-3-yl}phenyl)-3-oxo-7-(trifluoromethyl)-2,3-dihydro-1H-isoindol-5-yl]methyl}piperazin-1-yl)methyl]cyclohexyl]oxy}piperidin-1-yl)-2,3-dihydro-1H-isoindol-2-yl]piperidine-2,6-dione], the DC50 was above 500 nM.

With `CC1c2nc(N3CCC(O[C@H]4CC[C@H](CN5CCN(Cc6cc(C(F)(F)F)c7c(n6)C(=O)N(c6cccc(C8(Cc9nncn9C)COC8)c6)C7)CC5)CC4)CC3)ccc2C(=O)N1C1CCC(=O)NC1=O` (stereo partly drawn) [Example 282, 3-[7-methyl-2-[4-[4-[[4-[[6-[3-[3-[(4-methyl-1,2,4-triazol-3-yl)methyl]oxetan-3-yl]phenyl]-7-oxo-4-(trifluoromethyl)-5H-pyrrolo[3,4-b]pyridin-2-yl]methyl]piperazin-1-yl]methyl]cyclohexoxy]-1-piperidyl]-5-oxo-7Hpyrrolo[3,4-b]pyridin-6-yl]piperidine-2,6-dione], the DC50 is above 500 nM.

Broadly, the Dmax is the greatest extent of degradation seen.

The values are drawn from patent publication US20260184710A1, “CASITAS B-LINEAGE LYMPHOMA PROTOONCOGENE B (CBL-B) DEGRADING COMPOUNDS AND ASSOCIATED METHODS OF USE” (Arvinas Operations, Inc., priority 2022, published 2026).
